Experimental data reported in ChEMBL document CHEMBL3608294, “Epoxylathyrol Derivatives: Modulation of ABCB1-Mediated Multidrug Resistance in Human Colon Adenocarcinoma and Mouse T-Lymphoma Cells” (J Nat Prod, 2015).

Legend:
[1] = molecular target: T1, ATP-dependent translocase ABCB1 (Homo sapiens, UniProt P08183); assay: Inhibition of human ABCB1 expressed in mouse L5178Y cells assessed as fluorescence activity ratio at 2 uM incubated for 10 mins by flow cytometry based rhodamine-123 accumulation assay (reference value: 0.78); format: cell-based
T1 sequence (P08183 whole entry): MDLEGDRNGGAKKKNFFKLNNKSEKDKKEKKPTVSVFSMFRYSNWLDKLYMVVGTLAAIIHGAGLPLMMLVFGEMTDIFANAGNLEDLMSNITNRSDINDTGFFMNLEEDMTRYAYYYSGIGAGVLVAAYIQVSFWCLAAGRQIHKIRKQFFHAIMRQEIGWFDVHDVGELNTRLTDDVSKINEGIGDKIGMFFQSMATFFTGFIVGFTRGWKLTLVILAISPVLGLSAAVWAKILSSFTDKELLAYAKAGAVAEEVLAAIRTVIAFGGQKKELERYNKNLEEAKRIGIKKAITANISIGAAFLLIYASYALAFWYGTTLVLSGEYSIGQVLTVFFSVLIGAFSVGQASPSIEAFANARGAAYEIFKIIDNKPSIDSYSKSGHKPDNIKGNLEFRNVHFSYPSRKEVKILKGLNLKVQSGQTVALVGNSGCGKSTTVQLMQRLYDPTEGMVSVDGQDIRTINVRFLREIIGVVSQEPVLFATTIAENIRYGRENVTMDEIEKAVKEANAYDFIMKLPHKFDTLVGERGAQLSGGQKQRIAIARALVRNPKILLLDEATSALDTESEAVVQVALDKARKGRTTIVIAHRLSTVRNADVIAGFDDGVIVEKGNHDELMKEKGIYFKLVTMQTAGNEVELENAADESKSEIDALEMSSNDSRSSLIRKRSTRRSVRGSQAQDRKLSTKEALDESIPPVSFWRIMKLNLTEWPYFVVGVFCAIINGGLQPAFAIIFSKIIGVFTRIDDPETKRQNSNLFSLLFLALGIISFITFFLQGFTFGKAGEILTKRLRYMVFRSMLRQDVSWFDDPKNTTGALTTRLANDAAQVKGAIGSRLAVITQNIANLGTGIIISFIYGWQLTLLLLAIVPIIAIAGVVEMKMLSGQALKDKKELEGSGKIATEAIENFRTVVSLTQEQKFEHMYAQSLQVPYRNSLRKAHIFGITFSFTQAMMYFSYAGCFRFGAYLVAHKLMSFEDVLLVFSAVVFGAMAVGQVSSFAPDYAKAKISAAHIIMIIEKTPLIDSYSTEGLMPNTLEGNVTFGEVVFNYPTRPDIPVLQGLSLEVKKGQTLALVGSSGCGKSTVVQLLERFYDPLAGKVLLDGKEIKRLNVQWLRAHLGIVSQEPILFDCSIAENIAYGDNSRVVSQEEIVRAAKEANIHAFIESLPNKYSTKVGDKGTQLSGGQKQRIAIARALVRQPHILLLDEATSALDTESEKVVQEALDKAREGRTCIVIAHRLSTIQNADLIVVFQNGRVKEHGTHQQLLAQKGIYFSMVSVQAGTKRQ

[2] = molecular target: T1, ATP-dependent translocase ABCB1; assay: Inhibition of human ABCB1 expressed in mouse L5178Y cells assessed as fluorescence activity ratio at 20 uM incubated for 10 mins by flow cytometry based rhodamine-123 accumulation assay (reference value: 0.78); format: cell-based
[3] = molecular target: T1, ATP-dependent translocase ABCB1; assay: Inhibition of ABCB1 in multidrug resistant human COLO320 cells assessed as fluorescence activity ratio at 2 uM incubated for 10 mins by flow cytometry based rhodamine-123 accumulation assay (reference value: 0.62)
[4] = molecular target: T1, ATP-dependent translocase ABCB1; assay: Inhibition of ABCB1 in multidrug resistant human COLO320 cells assessed as fluorescence activity ratio at 20 uM incubated for 10 mins by flow cytometry based rhodamine-123 accumulation assay (reference value: 0.62)
[5] = molecular target: T1, ATP-dependent translocase ABCB1; assay: Inhibition of human ABCB1 expressed in mouse L5178Y cells assessed as potentiation of 2 mg/ml doxorubicin-induced cytotoxicty at 6:1 compound to doxorubicin ratio incubated for 48 hrs by MTT assay; format: cell-based
L5178Y [6] = assay: Antiproliferative activity against chemosensitive wild type parental mouse L5178Y cells incubated for 72 hrs by MTT assay; format: functional, cell-based
L5178Y [7] = assay: Antiproliferative activity against human ABCB1 expressing mouse L5178Y cells incubated for 72 hrs by MTT assay; format: functional, cell-based
[8] = Antiproliferative activity against chemosensitive human COLO205 cells incubated for 72 hrs by MTT assay; format: functional, cell-based; conditions: COLO 205, 72 h
[9] = Antiproliferative activity against multidrug resistant human COLO320 cells incubated for 72 hrs by MTT assay; format: functional; conditions: COLO 320, 72 h
[10] = Selectivity index, ratio of antiproliferative IC50 for chemosensitive human COLO205 cells to antiproliferative IC50 for multidrug resistant human COLO320 cells; format: functional, COLO 205
L5178Y [11] = assay: Cytotoxicity against chemosensitive wild type parental mouse L5178Y cells incubated for 24 hrs by MTT assay; format: functional, cell-based
L5178Y [12] = assay: Cytotoxicity against human ABCB1 expressing mouse L5178Y cells incubated for 24 hrs by MTT assay; format: functional, cell-based
COLO 205 = assay: Cytotoxicity against chemosensitive human COLO205 cells incubated for 24 hrs by MTT assay; format: functional, cell-based; conditions: COLO 205, 24 h
[13] = Cytotoxicity against multidrug resistant human COLO320 cells incubated for 24 hrs by MTT assay; format: functional, cell-based; conditions: COLO 320, 24 h
[14] = Selectivity index, ratio of cytotoxic IC50 for chemosensitive human COLO205 cells to cytotoxic IC50 for multidrug resistant human COLO320 cells; format: functional, COLO 205
[15] = molecular target: T1, ATP-dependent translocase ABCB1; assay: Inhibition of human ABCB1 expressed in mouse L5178Y cells assessed as potentiation of 2 mg/ml doxorubicin-induced cytotoxicty by measuring combination index at 5:1 compound to doxorubicin ratio incubated for 48 hrs by MTT assay; format: cell-based
[16] = molecular target: T1, ATP-dependent translocase ABCB1; assay: Activation of human ABCB1 expressed in Sf9 cell membrane vesicles assessed as inorganic phosphate release at 0.8 uM to 100 uM using MgATP by colorimetric ATPase assay
L5178Y [17] = assay: Selectivity index, ratio of antiproliferative IC50 for wild type parental mouse L5178Y cells to antiproliferative IC50 for human ABCB1 expressing mouse L5178Y cells; format: functional
L5178Y [18] = assay: Selectivity index, ratio of cytotoxic IC50 for wild type parental mouse L5178Y cells to cytotoxic IC50 for human ABCB1 expressing mouse L5178Y cells; format: functional
[19] = molecular target: T1, ATP-dependent translocase ABCB1; assay: Inhibition of human ABCB1 expressed in mouse L5178Y cells assessed as fluorescence activity ratio at 0.2 uM incubated for 10 mins by flow cytometry based rhodamine-123 accumulation assay (reference value: 0.78); format: cell-based
[20] = molecular target: T1, ATP-dependent translocase ABCB1; assay: Inhibition of ABCB1 in multidrug resistant human COLO320 cells assessed as fluorescence activity ratio at 0.2 uM incubated for 10 mins by flow cytometry based rhodamine-123 accumulation assay (reference value: 0.62)
[21] = molecular target: T1, ATP-dependent translocase ABCB1; assay: Inhibition of human ABCB1 expressed in mouse L5178Y cells assessed as potentiation of 2 mg/ml doxorubicin-induced cytotoxicty by measuring combination index at 4:1 compound to doxorubicin ratio incubated for 48 hrs by MTT assay; format: cell-based

SMILES	Ratio [1]	Ratio [2]	Ratio [3]	Ratio [4]	Ratio [19]	Ratio [20]	CI [5]	IC50 (L5178Y [6]) [µM]	IC50 (L5178Y [7]) [µM]	IC50 [8] [µM]	IC50 [9] [µM]	Ratio IC50 [10]	IC50 (L5178Y [11]) [µM]	IC50 (L5178Y [12]) [µM]	IC50 (COLO 205) [µM]	IC50 [13] [µM]	Ratio IC50 [14]	CI [15]	Ratio IC50 (L5178Y [17])	Ratio IC50 (L5178Y [18])	also measured
C/C1=C\[C@@H]2[C@H](CC[C@@](C)(O)[C@H](O)[C@H]3[C@@H](OC(=O)c4ccccc4)[C@@H](C)C[C@]3(O)[C@H]1O)C2(C)C	1.45	33.19	1.37	4.29			0.23	> 100	> 100	30.4	37.1	0.84	> 100	> 100	> 100	52.7	>1.9				
CO[C@H]1[C@@H]2[C@H](CC[C@]3(COC(C)=O)O[C@@H]3[C@H]3[C@@H](OC(C)=O)[C@@H](C)C[C@]3(O)C(=O)[C@@H]1C)C2(C)C	1.16	2.07	1.1	2.25			0.214	> 100	> 100	> 100	65.8	>1.98	> 100	> 100	> 100	> 100					
COc1cccc(C(=O)O[C@@H]2[C@@H]3[C@@H](OC(=O)c4cccc(OC)c4)[C@]4(CC[C@H]5[C@@H](/C=C(\C)C(=O)[C@@]3(O)C[C@@H]2C)C5(C)C)CO4)c1	60.62	63.13	9.1	15.4	10.45	3.13		24.5	52.8	> 100	> 100		42.3	> 100	> 100	> 100		0.097	0.46	<0.42	Activity [16]: Active
C/C1=C\[C@@H]2[C@H](CC[C@]3(CO3)[C@H](OC(=O)c3ccc(N(C)C)cc3)[C@H]3[C@@H](OC(=O)c4ccc(N(C)C)cc4)[C@@H](C)C[C@]3(O)C1=O)C2(C)C	8.03	56.81	3.07	12.31	1.38	1.02		28.8	45.7	17.2	21.3	0.8	33.9	48.4	22.5	36.2	0.62	0.172	0.63	0.7	

Continued, in another order:

Ratio [1]	Ratio [2]	Ratio [3]	Ratio [4]	Ratio [19]	Ratio [20]	SMILES	CI [5]	IC50 (L5178Y [6]) [µM]	IC50 (L5178Y [7]) [µM]	IC50 [8] [µM]	IC50 [9] [µM]	Ratio IC50 [10]	IC50 (L5178Y [11]) [µM]	IC50 (L5178Y [12]) [µM]	IC50 (COLO 205) [µM]	IC50 [13] [µM]	Ratio IC50 [14]	CI [15]	Ratio IC50 (L5178Y [17])	Ratio IC50 (L5178Y [18])	also measured
58.84	66.52	5.83	5.06	13.67	2.54	C/C1=C\[C@@H]2[C@H](CC[C@]3(CO3)[C@H](OC(=O)c3ccc4ccccc4c3)[C@H]3[C@@H](OC(=O)c4ccc5ccccc5c4)[C@@H](C)C[C@]3(O)C1=O)C2(C)C		> 100	> 100	> 100	> 100		> 100	> 100	> 100	> 100					CI [21]: 0.233
86.39	83.29	5.59	6.86	3.55	3	C/C1=C\[C@@H]2[C@H](CC[C@]3(CO3)[C@H](OC(=O)c3cccc(C)c3)[C@H]3[C@@H](OC(=O)c4cccc(C)c4)[C@@H](C)C[C@]3(O)C1=O)C2(C)C		41.8	29	15.4	15.7	0.98	26.4	> 50	> 50	23.9	>2.09	0.066	1.44	<0.53	
